Source: ChEMBL document CHEMBL4359819, “Exploiting the 1-(4-fluorobenzyl)piperazine fragment for the development of novel tyrosinase inhibitors as anti-melanogenic agents: Design, synthesis, structural insights and biological profile” (Eur J Med Chem, 2019)
The source made the active and inactive calls. The calls are words filed in the database; no cut-off is given here.

Columns and labels:
[1] = molecular target: T1, Tyrosinase (Agaricus bisporus, UniProt O42713); assay: Inhibition of mushroom tyrosinase assessed as reduction in dopachrome production using L-DOPA as substrate after 5 mins by spectrophotometric analysis
T1 sequence (O42713 whole entry): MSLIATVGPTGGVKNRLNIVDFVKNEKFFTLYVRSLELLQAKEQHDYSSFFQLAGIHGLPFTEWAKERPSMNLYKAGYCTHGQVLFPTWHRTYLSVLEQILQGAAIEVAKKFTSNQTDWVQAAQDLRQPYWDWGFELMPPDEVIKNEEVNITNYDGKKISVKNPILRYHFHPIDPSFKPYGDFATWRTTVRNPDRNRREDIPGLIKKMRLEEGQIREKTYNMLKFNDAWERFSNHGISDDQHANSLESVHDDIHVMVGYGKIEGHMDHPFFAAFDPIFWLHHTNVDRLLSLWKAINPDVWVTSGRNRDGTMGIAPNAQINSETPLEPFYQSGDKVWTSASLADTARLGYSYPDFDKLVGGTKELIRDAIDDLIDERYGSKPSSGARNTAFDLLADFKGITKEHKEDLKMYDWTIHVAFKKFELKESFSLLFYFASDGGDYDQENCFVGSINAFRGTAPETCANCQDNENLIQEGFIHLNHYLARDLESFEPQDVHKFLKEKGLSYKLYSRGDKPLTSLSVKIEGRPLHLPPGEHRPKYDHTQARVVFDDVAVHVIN

[2] = test system: B16-F10; assay: Inhibition of alpha-MSH-stimulated melanogenesis in mouse B16F10 cells assessed as melanin content at 10 uM measured after 48 hrs relative to control; assay type: functional; details: B16-F10, 48 h
[3] = molecular target: T2, Tyrosinase (Agaricus bisporus) (UniProt O42713); assay: Competitive inhibition of mushroom tyrosinase assessed as increase in Km for substrate at 0.48 to 1.92 uM using varying levels of L-DOPA as substrate by Lineweaver-Burk plot analysis
T2 sequence (whole entry): T1 sequence (O42713 whole entry)

[4] = molecular target: T2, Tyrosinase (Agaricus bisporus); assay: Potency index, ratio of kojic acid IC50 to compound IC50 for inhibition of mushroom tyrosinase using L-DOPA as substrate
[5] = molecular target: T2, Tyrosinase (Agaricus bisporus); assay: Competitive inhibition of mushroom tyrosinase assessed as Vmax for substrate at 0.48 to 1.92 uM using varying levels of L-DOPA as substrate by Lineweaver-Burk plot analysis

IC50 [1] | SMILES | other results
2030 nM | O=C(c1ccccc1Br)N1CCN(Cc2ccc(F)cc2)CC1 | 
8430 nM | O=C(c1cccc(C(F)(F)F)c1)N1CCN(Cc2ccc(F)cc2)CC1 | 
10900 nM | Nc1ccccc1C(=O)N1CCN(Cc2ccc(F)cc2)CC1 | 
3380 nM | O=C(c1ccc(C(F)(F)F)cc1)N1CCN(Cc2ccc(F)cc2)CC1 | 
870 nM | O=C(c1ccccc1[N+](=O)[O-])N1CCN(Cc2ccc(F)cc2)CC1 | 
3670 nM | Nc1ccc(C(=O)N2CCN(Cc3ccc(F)cc3)CC2)c(N)c1 | 
790 nM | O=C(c1ccc(Cl)cc1Cl)N1CCN(Cc2ccc(F)cc2)CC1 | 
3810 nM | Nc1cccc(C(=O)N2CCN(Cc3ccc(F)cc3)CC2)c1 | 
1050 nM | O=C(c1ccc(Br)cc1Br)N1CCN(Cc2ccc(F)cc2)CC1 | 
3430 nM | Cc1ccc(C(=O)N2CCN(Cc3ccc(F)cc3)CC2)c(C)c1 | 
1630 nM | O=C(c1ccc(C(F)(F)F)cc1C(F)(F)F)N1CCN(Cc2ccc(F)cc2)CC1 | 
5300 nM | O=C(c1cccc(Cl)c1)N1CCN(Cc2ccc(F)cc2)CC1 | 
480 nM | O=C(c1ccccc1C(F)(F)F)N1CCN(Cc2ccc(F)cc2)CC1 | 
3510 nM | O=C(c1ccc(Cl)cc1)N1CCN(Cc2ccc(F)cc2)CC1 | 
14700 nM | Nc1ccc(C(=O)N2CCN(Cc3ccc(F)cc3)CC2)cc1 | 
960 nM | O=C(c1ccc([N+](=O)[O-])cc1[N+](=O)[O-])N1CCN(Cc2ccc(F)cc2)CC1 | inhibition at 10 µM [2]: 22.8%; inhibition [3]: Active; Ratio IC50 [4]: 20; inhibition [5]: Active
2050 nM | O=C(c1ccc([N+](=O)[O-])cc1)N1CCN(Cc2ccc(F)cc2)CC1 | 
3600 nM | O=C(c1cccc([N+](=O)[O-])c1)N1CCN(Cc2ccc(F)cc2)CC1 | 
2400 nM | O=C(c1cccc(Br)c1)N1CCN(Cc2ccc(F)cc2)CC1 | 
1490 nM | O=C(c1ccc(O)cc1O)N1CCN(Cc2ccc(F)cc2)CC1 | 
3120 nM | O=C(c1ccccc1Cl)N1CCN(Cc2ccc(F)cc2)CC1 | 
1400 nM | COc1ccc(C(=O)N2CCN(Cc3ccc(F)cc3)CC2)c(OC)c1 | 
1910 nM | O=C(c1ccc(F)cc1F)N1CCN(Cc2ccc(F)cc2)CC1 | 

SMILES | IC50 [1] | other results
O=C(c1ccc(Br)cc1)N1CCN(Cc2ccc(F)cc2)CC1 | 4610 nM | 
